The target of the assay is T1, human cloned CHRM5 receptor (M5_CHO) (Homo sapiens, UniProt P08912).
T1 construct: expressed in transfected cells; host or cells: CHO (M5_CHO)
T1 sequence (P08912 1-532): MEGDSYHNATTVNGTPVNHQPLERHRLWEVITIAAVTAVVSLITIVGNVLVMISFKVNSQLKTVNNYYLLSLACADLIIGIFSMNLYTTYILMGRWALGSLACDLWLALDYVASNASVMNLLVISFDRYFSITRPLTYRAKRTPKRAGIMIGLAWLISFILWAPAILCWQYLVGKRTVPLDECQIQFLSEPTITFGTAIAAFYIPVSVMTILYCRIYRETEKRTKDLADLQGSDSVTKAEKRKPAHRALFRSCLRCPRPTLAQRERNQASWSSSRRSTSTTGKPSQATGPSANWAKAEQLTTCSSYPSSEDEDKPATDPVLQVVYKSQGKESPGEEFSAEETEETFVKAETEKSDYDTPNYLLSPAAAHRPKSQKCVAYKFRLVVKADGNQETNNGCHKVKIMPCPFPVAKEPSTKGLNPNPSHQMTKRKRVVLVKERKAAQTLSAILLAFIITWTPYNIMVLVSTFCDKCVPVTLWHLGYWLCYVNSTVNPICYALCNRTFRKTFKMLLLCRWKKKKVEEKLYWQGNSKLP
Description: CHRM5 Ca++ Flux Assay (agonist mode, FDSS 7000EX). The class given is cell-based. As to conditions: for Emax: Percent Activity measured to EC100 of Carbachol, read-out: M5 FDSS PA; for EC50: agonist mode, geometric mean if tested more than once, read-out: M5 FDSS EC50. A digest of the protocol: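 CHO-K1 cells stably expressing human M3 or M5 receptor were dye-loaded for at least 1 h in HBSS with 20 mM HEPES and 2.5 mM probenecid, then given 11-point compound doses in triplicate.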

Structures are written as SMILES.

Usually EC50 stands for the concentration giving half of the maximal effect.

Turning to `c1ccc(C2CCN([C@@H]3CCC4(C3)CN(c3nnco3)C4)CC2)c(OCC2CCOCC2)c1` [Example 2G, (R)-2-(6-(4-(2-((tetrahydro-2H-pyran-4-yl)methoxy)phenyl)piperidin-1-yl)-2-azaspiro[3.4]octan-2-yl)-1,3,4-oxadiazole], the Emax turned out to be 0% and the EC50 was > 25 µM.
`CC(C)(O)COc1ccccc1C1CCN([C@@H]2CCC3(C2)CN(c2nncs2)C3)CC1` [Example 3G, (R)-1-(2-(1-(2-(1,3,4-thiadiazol-2-yl)-2-azaspiro[3.4]octan-6-yl)piperidin-4-yl)phenoxy)-2-methylpropan-2-ol]: the Emax is 0% and the EC50 was > 25 µM.
The matching figures for `O=C(N1CC2(CC[C@@H](N3CCC(c4ccccc4C4CCOCC4)CC3)C2)C1)C1(F)CC1` [Example 6E, (R)-(1-fluorocyclopropyl)(6-(4-(2-(tetrahydro-2H-pyran-4-yl)phenyl)piperidin-1-yl)-2-azaspiro[3.4]octan-2-yl)methanone]: 0% and > 25 µM.
The matching figures for `CC(C)(O)CCOc1ccccc1C1CCN([C@@H]2CCC3(C2)CN(c2ncns2)C3)CC1` [Example 3L, (R)-4-(2-(1-(2-(1,2,4-thiadiazol-5-yl)-2-azaspiro[3.4]octan-6-yl)piperidin-4-yl)phenoxy)-2-methylbutan-2-ol]: 0% and > 25 µM.
For the molecule `c1ccc(C2CCN([C@@H]3CCC4(C3)CN(c3nnco3)C4)CC2)c(OC2COC2)c1` [Example 1D, (R)-2-(6-(4-(2-(oxetan-3-yloxy)phenyl)piperidin-1-yl)-2-azaspiro[3.4]octan-2-yl)-1,3,4-oxadiazole], the Emax is 0% and the half-maximal effective concentration (EC50) is 4.39 µM.
For `COc1ccccc1C1CCN([C@@H]2CCC3(C2)CN(c2nc(C)ns2)C3)CC1` [Example 3M, (R)-5-(6-(4-(2-methoxyphenyl)piperidin-1-yl)-2-azaspiro[3.4]octan-2-yl)-3-methyl-1,2,4-thiadiazole] the same measures were 0% and > 25 µM.
With `COCCOc1ccccc1C1CCN([C@@H]2CCC3(C2)CN(c2cnc(C)cn2)C3)CC1` [Example 5Y, (R)-6-(4-(2-(2-methoxyethoxy)phenyl)piperidin-1-yl)-2-(5-methylpyrazin-2-yl)-2-azaspiro[3.4]octane], the Emax is 0% and the EC50 is > 25 µM.
Turning to `c1ccc(C2CCN([C@@H]3CCC4(C3)CN(c3nnco3)C4)CC2)c(OC2CCOCC2)c1` [Example 2F, (R)-2-(6-(4-(2-((tetrahydro-2H-pyran-4-yl)oxy)phenyl)piperidin-1-yl)-2-azaspiro[3.4]octan-2-yl)-1,3,4-oxadiazole], the Emax came to 0% and the EC50 was > 25 µM.
The matching figures for `O=C(N1CC2(CC[C@H](N3CCC(c4ccccc4C4CCOCC4)CC3)C2)C1)C1(F)CC1` (single isomer, unassigned) [Example 9M]: 0% and > 25 µM.
As for `O=C(C1COC1)N1CC2(CC[C@@H](N3CCC(c4ccccc4OCCOC(F)(F)F)CC3)C2)C1` [Example 7DD, (R)-oxetan-3-yl(6-(4-(2-(2-(trifluoromethoxy)ethoxy)phenyl)piperidin-1-yl)-2-azaspiro[3.4]octan-2-yl)methanone], the Emax amounted to 18% and the concentration giving a half-maximal response (EC50) stood at 1.12 µM.
In the case of `O=C(C1COC1)N1CC2(CC[C@@H](N3CCC(c4ccccc4OCC4(C(F)(F)F)CC4)CC3)C2)C1` [Example 7II, (R)-oxetan-3-yl(6-(4-(2-((1-(trifluoromethyl)cyclopropyl)methoxy)phenyl)piperidin-1-yl)-2-azaspiro[3.4]octan-2-yl)methanone], the Emax amounted to 13% and the EC50 was 1.64 µM.
On to `Fc1ccc(C2CCOC2)c(C2CCN([C@@H]3CCC4(C3)CN(c3nnco3)C4)CC2)c1` (mixture of isomers) [Example 2J, 2-((6R)-6-(4-(5-fluoro-2-(tetrahydrofuran-3-yl)phenyl)piperidin-1-yl)-2-azaspiro[3.4]octan-2-yl)-1,3,4-oxadiazole], for which the Emax turned out to be 0% and the EC50 is > 25 µM.

Source of the values: patent US12122761B2, “2-azaspiro[3.4]octane derivatives as M4 agonists” (NOVARTIS AG, priority 2019, dated 2024).
